According to the Deep4Chem optical property database:
Values joined by “and” are separate entries in the source; they are usually repeats but may differ in a detail not shown here. Equal entries are not always repeated.

Experiment: photoluminescence quantum yield (fraction); solvent given as SMILES
[1] = in c1cc(-c2cccc(-n3c4ccccc4c4ccccc43)c2)cc(-n2c3ccccc3c3ccccc32)c1
[2] = in O=P(c1ccccc1)(c1ccccc1)c1ccccc1Oc1ccccc1P(=O)(c1ccccc1)c1ccccc1

Compound: CC(C)(C)n1c(=O)c2cc3ccc4cccc5ccc(c2c1=O)c3c45
- photoluminescence quantum yield (in ClC(Cl)Cl): 0.41 and 0.408

Compound: O=C1c2ccccc2S(=O)(=O)c2ccc(-n3c4ccccc4c4ccccc43)cc21
- photoluminescence quantum yield [1]: 0.296

Compound: Cc1cccc(C)c1N1C(c2ccccc2)=Cc2cccc[n+]2[B-]1(F)F
- photoluminescence quantum yield (in ClCCl): 0.36

Compound: CCOC(=O)CN1C(=O)C2=C(c3ccc(N4CCCCC4)cc3)N(CC(=O)OCC)C(=O)C2=C1c1ccc(C#N)cc1
- photoluminescence quantum yield (in CC#N): 0.01
- photoluminescence quantum yield (in CS(C)=O): 0.001
- photoluminescence quantum yield (in Cc1ccccc1): 0.16

Compound: F[B-]1(F)n2c(/C=C/c3ccc(C(=C(c4ccccc4)c4ccccc4)c4ccccc4)cc3)ccc2C(c2ccccc2)=C2C=CC(/C=C/c3ccc(C(=C(c4ccccc4)c4ccccc4)c4ccccc4)cc3)=[N+]21
- photoluminescence quantum yield (in C1CCOC1): 0.42

Compound: CCN(CC)c1ccc2cc(-c3nc4cc(C(=O)Nc5ccc(C)cc5[N+](=O)[O-])ccc4o3)c(=O)oc2c1
- photoluminescence quantum yield (in ClCCl): 0.43

Compound: N#Cc1nn(-c2c(Cl)cccc2Cl)nc1N1CCCC1
- photoluminescence quantum yield (in CC#N): 0.113

Compound: N#Cc1c(-n2c3ccccc3c3ccccc32)cccc1-n1c2ccccc2c2ccccc21
- photoluminescence quantum yield (in Cc1ccccc1): 0.13
- photoluminescence quantum yield [2]: 0.28

Compound: C1=Cc2ccc(N(c3ccccc3)c3ccccc3)cc2Cc2cc(N(c3ccccc3)c3ccccc3)ccc21
- photoluminescence quantum yield (in ClCCl): 0.99

Compound: N#Cc1nc(N(Cc2ccc(Cl)cc2)Cc2ccc(Cl)cc2)c(C#N)nc1N(Cc1ccc(Cl)cc1)Cc1ccc(Cl)cc1
- photoluminescence quantum yield (in ClC(Cl)Cl): 0.71

Compound: COc1cc(OC)cc(C2=[O+][B-](F)(F)OC(c3ccc4cc(OC)ccc4c3)=C2)c1
- photoluminescence quantum yield (in CC#N): 0.22
- photoluminescence quantum yield (in CC(C)=O): 0.37
- photoluminescence quantum yield (in CCCCCC): 0.26
- photoluminescence quantum yield (in Cc1ccccc1): 0.79
- photoluminescence quantum yield (in ClCCl): 0.95

Compound: CC(C)(C)c1ccc2c(c1)c1cc(C(C)(C)C)ccc1n2-c1cc[n+]2c(c1)-c1ccccc1O[B-]2(F)F
- photoluminescence quantum yield [2]: 0.74

Compound: c1ccc(-c2nc(-c3ccccc3)nc(-c3ccc(-n4c5ccccc5c5cc6c7ccccc7n7c8ccccc8c(c54)c67)cc3)n2)cc1
- photoluminescence quantum yield (in O=P(c1ccccc1)(c1ccccc1)c1ccc2oc3ccc(P(=O)(c4ccccc4)c4ccccc4)cc3c2c1): 0.68

Compound: N#Cc1cc(-n2c3ccccc3c3ccccc32)c(C#N)cc1-n1c2ccccc2c2ccccc21
- photoluminescence quantum yield [1]: 0.87
- photoluminescence quantum yield (in c1ccc2c(c1)c1ccccc1n2P1(n2c3ccccc3c3ccccc32)=NP(n2c3ccccc3c3ccccc32)(n2c3ccccc3c3ccccc32)=NP(n2c3ccccc3c3ccccc32)(n2c3ccccc3c3ccccc32)=N1): 0.85

Compound: C[Si](C)(C)C#CC(C#C[Si](C)(C)C)=Cc1ccc(C=C(C#C[Si](C)(C)C)C#C[Si](C)(C)C)cc1
- photoluminescence quantum yield (in ClC(Cl)Cl): 0.01 and 0.03

Compound: CC1(C)c2ccccc2N(c2ccc(-c3nc(-c4ccccc4)cc(-c4ccccc4)n3)cc2)c2ccccc21
- photoluminescence quantum yield (in CC#N): 0.018
- photoluminescence quantum yield (in Cc1ccccc1): 0.339
- photoluminescence quantum yield (in ClCCl): 0.632
- photoluminescence quantum yield [2]: 0.61

Compound: F[B-]1(F)n2c(c(-c3ccccc3)c3ccccc32)C(c2ccccc2)=C2C(c3ccccc3)=c3ccccc3=[N+]21
- photoluminescence quantum yield (in ClCCl): 0

Compound: COc1ccc(C2=CC(c3ccccc3)=C(c3ccccc3)C2)c2ccccc12
- photoluminescence quantum yield (in ClCCl): 0.0685

Compound: Nc1ccccc1
- photoluminescence quantum yield (in C1CCCCC1): 0.1

Compound: CCC1=C(C)C2=C(c3c4ccccc4cc4ccccc34)c3c(C)c(CC)c(C)n3[B-](F)(F)[N+]2=C1C
- photoluminescence quantum yield (in CC#N): 0.579
- photoluminescence quantum yield (in CCCCCC): 0.871
- photoluminescence quantum yield (in CCO): 0.778
- photoluminescence quantum yield (in CN(C)C=O): 0.705
- photoluminescence quantum yield (in Cc1ccccc1): 0.806
- photoluminescence quantum yield (in ClCCl): 0.799

Compound: COC(=O)c1nc(-c2ccccc2)oc1C
- photoluminescence quantum yield (in C1CCCCC1): 0.36
- photoluminescence quantum yield (in CC#N): 0.38
- photoluminescence quantum yield (in CCO): 0.47
- photoluminescence quantum yield (in CCOC(C)=O): 0.44
- photoluminescence quantum yield (in O): 0.34

Compound: c1ccc(N(c2ccccc2)c2ccc(-c3ncc(-c4cnc(-c5ccc(N(c6ccccc6)c6ccccc6)cc5)s4)s3)cc2)cc1
- photoluminescence quantum yield (in CO): 0.2

Compound: O=S1(=O)c2ccc(-c3c4ccccc4cc4ccccc34)cc2-c2cc(-c3c4ccccc4cc4ccccc34)ccc21
- photoluminescence quantum yield (in C1CCCCC1): 0.39
- photoluminescence quantum yield (in CC#N): 0.13
- photoluminescence quantum yield (in ClCCl): 0.24

Compound: c1ccc(-c2nc(-c3ccc(N(c4ccccc4)c4ccccc4)cc3)n3ccccc23)cc1
- photoluminescence quantum yield (in ClCCl): 0.127

Compound: Cc1cc(C2=C(c3cc(C)sc3C)P(=O)(c3ccccc3)c3ccccc32)c(C)s1 (centres undefined)
- photoluminescence quantum yield (in C1CCOC1): 0.03

Compound: F[B-]1(F)n2c(nc(Br)c2Br)-c2cccc[n+]21
- photoluminescence quantum yield (in C1CCCCC1): 0.47
- photoluminescence quantum yield (in C1CCOC1): 0.32
- photoluminescence quantum yield (in C1COCCO1): 0.35
- photoluminescence quantum yield (in CC#N): 0.32
- photoluminescence quantum yield (in CCCCCC): 0.45
- photoluminescence quantum yield (in CO): 0.31
- photoluminescence quantum yield (in ClC(Cl)Cl): 0.41
